In patent US12208090B2, “Compounds for use in treating depression and migraine” (Khondrion IP B.V., priority 2017, dated 2025):

Tests used:
[1] = test system: patients carrying the mutation m.3243A>G in the mitochondrial DNA; test: Khenergy phase 2 trial: Beck Depression Inventory-II (BDI); format: in vivo, human
Excerpt: (§1) The Khenergy trial (clinicaltrial.gov identifier NCT02909400) was a double blind, randomized, placebo-controlled, single-centre, two-way cross-over trial. Twenty patients, with a confirmed mitochondrial DNA tRNALeu(UUR) m.3243A>G mutation and with clinical signs of mitochondrial disease, were randomized over 2 groups (active or placebo first). After a screening period and a training session, each group had 2 dosing periods of 28 days, with a washout period of at least 28 days in between. On these occasions (i.e. during the dosing periods), patients received 100 mg KH176 twice daily (treatment A) or a matching placebo (treatment B) twice daily for 28 days. Clinical assessments were performed once in a training session prior to baseline, at baseline and in week 4 post dosing during each treatment phase (A and B). Testing conditions and circumstances, with respect to timing of the assessments, hospitalization and meals, were standardized for each assessment period. Furthermore, assessments of biomarkers for mitochondrial functioning, pharmacokinetics and specific safety assessments were performed weekly. Trial results have been published (Janssen, Koene, De Laat, et al., 2018)
The effect of KH176 on depression symptoms in patients carrying the mutation m.3243A>G in the mitochondrial DNA was evaluated with the Beck Depression Inventory-II (BDI) score and Hospital Anxiety and Depression Scale (HADS) during the Khenergy phase 2 clinical trial (clinicaltrial.gov identifier NCT02909400). […] This observation was supported by a positive trend in the Hospital Anxiety and Depression Scale (effect size, −1.9 (95% Cl, −3.6 to −0.2); P=0.03).

[2] = test system: patients who suffer from chronic migraine; test: Khenergy phase 2 trial: patient-reported migraine and headache; format: in vivo, human
Excerpt: as §1
Two patients from the Khenergy Phase 2 clinical trial have spontaneously reported a decreased frequency of migraine event during the treatment period with KH176 (reported before unblinding of the study). A third patient retrospectively reported that they had more migraines during the placebo treatment period over the KH176 treatment period.

[3] = 100 mg KH176 twice daily for 28 days vs matching placebo, cross-over

SMILES: Cc1c(C)c2c(c(C)c1O)CC[C@@](C)(C(=O)N[C@@H]1CCCNC1)O2 [KH176]
- Beck Depression Affective Subscale, effect size, comparison KH176-Placebo [1, 3]: −1.1
- Beck Depression Inventory total score, effect size, comparison KH176-Placebo [1, 3]: −2.9
- effect on depression symptoms (in words) ([1]; KHENERGY trial, mitochondrial disease patients): significantly reduce depression symptoms
- effect on migraine events (in words) ([2]; KHENERGY trial, patients who previously chronically suffered from migraine, KH176 treatment period): reduction of the intensity and number of migraine events
- headache during the 4 weeks of KH176 ([2]; Patient A, before: severe headaches every day, migraine 2 times a week): NO headache
- patients with a positive effect on migraine ([2]; patients of the trial who suffer from chronic migraine): 3 out of 3
